Results from publication PMC7265341, “Quantifying CDK inhibitor selectivity in live cells” (Nature Communications, 2020).
pIC50: −log10 of the molar value. Where two headings read alike, the source gives them in different places. Blank lines part the entries; values can stand above or below the compound they belong to.

Tests used:
[1] = molecular target: CDK2/Cyclin E1 (Homo sapiens, UniProt P24941); test: NanoBRET live-cell target engagement, CDK2-NanoLuc/Cyclin E1 in HEK-293; format: binding; details: for IC50: CDK2/E1
[2] = molecular target: CDK10/Cyclin L2 (Homo sapiens, UniProt Q15131); test: NanoBRET live-cell target engagement, CDK10-NanoLuc/Cyclin L2 in HEK-293; details: 10µM
CDK10/Cyclin L2, sequence (Q15131 whole entry): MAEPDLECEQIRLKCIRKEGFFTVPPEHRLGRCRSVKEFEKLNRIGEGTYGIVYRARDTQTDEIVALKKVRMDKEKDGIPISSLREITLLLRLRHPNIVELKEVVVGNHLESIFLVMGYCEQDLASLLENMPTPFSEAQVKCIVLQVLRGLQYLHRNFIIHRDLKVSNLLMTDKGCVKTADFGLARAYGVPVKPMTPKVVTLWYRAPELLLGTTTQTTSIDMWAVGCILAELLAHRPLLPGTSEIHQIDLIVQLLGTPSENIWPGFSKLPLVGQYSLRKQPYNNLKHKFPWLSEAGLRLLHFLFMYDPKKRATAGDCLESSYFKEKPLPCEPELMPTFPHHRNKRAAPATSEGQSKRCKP

[3] = molecular target: CDK8/Cyclin C (Homo sapiens, UniProt P49336); test: NanoBRET live-cell target engagement, NanoLuc-CDK8/Cyclin C in HEK-293; format: binding; details: CDK8/C, 10µM
CDK8/Cyclin C, sequence (P49336 whole entry): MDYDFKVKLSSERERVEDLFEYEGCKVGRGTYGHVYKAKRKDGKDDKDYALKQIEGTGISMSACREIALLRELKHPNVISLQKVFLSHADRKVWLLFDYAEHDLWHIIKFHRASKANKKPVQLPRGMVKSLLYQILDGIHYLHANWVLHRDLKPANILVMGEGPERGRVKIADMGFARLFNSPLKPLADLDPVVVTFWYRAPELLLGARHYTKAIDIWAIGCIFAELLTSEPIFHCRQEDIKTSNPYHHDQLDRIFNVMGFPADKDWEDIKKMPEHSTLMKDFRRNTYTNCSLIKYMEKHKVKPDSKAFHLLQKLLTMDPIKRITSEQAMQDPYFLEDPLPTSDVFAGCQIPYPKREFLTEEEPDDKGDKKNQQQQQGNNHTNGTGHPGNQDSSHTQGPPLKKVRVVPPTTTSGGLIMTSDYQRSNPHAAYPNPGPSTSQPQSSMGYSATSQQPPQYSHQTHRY
CDK8/Cyclin C, sequence (P24863 whole entry partner): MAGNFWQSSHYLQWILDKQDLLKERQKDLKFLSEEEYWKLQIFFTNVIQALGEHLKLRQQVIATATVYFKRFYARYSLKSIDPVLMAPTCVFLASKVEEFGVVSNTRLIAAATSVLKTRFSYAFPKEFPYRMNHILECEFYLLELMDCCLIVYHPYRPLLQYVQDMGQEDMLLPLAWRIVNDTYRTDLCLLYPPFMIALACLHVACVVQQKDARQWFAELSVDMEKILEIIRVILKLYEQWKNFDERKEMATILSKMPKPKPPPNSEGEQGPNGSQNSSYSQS

[4] = molecular target: CDK19/Cyclin C (Homo sapiens, UniProt Q9BWU1); test: NanoBRET live-cell target engagement, NanoLuc-CDK19/Cyclin C in HEK-293; details: 10µM
CDK19/Cyclin C, sequence (Q9BWU1 whole entry): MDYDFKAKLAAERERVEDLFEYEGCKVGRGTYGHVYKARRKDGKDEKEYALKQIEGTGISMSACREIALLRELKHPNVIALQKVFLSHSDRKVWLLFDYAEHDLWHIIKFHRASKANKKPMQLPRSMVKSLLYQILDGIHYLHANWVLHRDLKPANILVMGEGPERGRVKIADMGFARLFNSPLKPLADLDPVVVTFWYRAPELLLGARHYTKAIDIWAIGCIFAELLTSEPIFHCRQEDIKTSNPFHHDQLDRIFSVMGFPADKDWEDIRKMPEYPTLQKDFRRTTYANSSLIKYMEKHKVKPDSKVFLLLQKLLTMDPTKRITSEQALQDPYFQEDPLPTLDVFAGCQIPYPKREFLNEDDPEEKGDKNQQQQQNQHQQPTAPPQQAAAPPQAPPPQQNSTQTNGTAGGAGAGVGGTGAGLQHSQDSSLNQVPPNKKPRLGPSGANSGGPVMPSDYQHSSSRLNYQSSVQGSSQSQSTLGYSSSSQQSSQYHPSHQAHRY
CDK19/Cyclin C, sequence (P24863 whole entry partner): as the sequence (P24863 whole entry partner) above

[5] = molecular target: CDK20/Cyclin H (Homo sapiens, UniProt Q8IZL9); test: NanoBRET live-cell target engagement, NanoLuc-CDK20/Cyclin H in HEK-293; format: binding; details: CDK20/H, 10µM
[6] = molecular target: CDK13/Cyclin K (Homo sapiens, UniProt Q14004); test: NanoBRET live-cell target engagement, CDK13-NanoLuc/Cyclin K in HEK-293; format: binding; details: CDK13/K, 10µM
[7] = molecular target: CDK12/Cyclin K (Homo sapiens, UniProt Q9NYV4); test: NanoBRET live-cell target engagement, CDK12-NanoLuc/Cyclin K in HEK-293; format: binding; details: CDK12/K, 10µM
CDK12/Cyclin K, sequence (Q9NYV4 1-1481 isoform Q9NYV4-2): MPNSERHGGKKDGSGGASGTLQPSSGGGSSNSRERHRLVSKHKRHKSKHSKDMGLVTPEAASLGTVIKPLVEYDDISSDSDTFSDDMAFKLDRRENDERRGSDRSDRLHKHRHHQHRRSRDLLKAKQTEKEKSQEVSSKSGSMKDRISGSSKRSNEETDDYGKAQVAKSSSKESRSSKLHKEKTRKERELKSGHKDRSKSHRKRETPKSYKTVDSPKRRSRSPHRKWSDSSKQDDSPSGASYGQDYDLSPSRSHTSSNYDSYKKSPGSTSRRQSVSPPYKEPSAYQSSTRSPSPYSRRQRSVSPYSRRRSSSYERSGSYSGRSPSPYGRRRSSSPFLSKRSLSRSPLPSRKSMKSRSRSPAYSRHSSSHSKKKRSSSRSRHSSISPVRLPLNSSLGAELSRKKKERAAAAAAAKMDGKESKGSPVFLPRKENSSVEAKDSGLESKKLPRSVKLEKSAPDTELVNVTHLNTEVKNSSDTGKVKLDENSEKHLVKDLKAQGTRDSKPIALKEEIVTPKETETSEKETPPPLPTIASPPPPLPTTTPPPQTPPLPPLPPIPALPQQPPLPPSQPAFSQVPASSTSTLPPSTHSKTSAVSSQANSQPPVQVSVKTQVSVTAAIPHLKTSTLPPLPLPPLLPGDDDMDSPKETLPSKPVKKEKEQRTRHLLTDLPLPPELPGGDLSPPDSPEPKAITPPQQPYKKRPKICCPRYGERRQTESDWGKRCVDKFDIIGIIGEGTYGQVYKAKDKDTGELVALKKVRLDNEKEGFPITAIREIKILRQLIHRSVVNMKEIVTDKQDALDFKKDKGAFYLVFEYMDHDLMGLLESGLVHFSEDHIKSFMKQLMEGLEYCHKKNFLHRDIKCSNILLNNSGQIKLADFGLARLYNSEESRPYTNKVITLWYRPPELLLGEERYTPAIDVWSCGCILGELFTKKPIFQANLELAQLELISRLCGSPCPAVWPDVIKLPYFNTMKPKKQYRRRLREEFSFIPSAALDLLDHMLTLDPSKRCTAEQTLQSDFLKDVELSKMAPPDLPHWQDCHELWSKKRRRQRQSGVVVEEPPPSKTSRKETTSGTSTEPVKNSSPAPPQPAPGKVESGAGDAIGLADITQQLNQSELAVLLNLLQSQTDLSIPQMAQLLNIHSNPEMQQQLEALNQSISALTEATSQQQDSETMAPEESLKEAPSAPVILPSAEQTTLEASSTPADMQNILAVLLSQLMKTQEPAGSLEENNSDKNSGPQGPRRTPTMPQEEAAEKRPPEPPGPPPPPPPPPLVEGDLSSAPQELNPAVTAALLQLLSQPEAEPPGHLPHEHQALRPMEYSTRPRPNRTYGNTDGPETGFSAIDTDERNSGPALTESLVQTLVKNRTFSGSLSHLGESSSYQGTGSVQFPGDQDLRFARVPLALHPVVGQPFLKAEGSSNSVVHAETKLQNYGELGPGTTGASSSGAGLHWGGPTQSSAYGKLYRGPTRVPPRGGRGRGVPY
CDK12/Cyclin K, sequence (O75909 whole entry partner): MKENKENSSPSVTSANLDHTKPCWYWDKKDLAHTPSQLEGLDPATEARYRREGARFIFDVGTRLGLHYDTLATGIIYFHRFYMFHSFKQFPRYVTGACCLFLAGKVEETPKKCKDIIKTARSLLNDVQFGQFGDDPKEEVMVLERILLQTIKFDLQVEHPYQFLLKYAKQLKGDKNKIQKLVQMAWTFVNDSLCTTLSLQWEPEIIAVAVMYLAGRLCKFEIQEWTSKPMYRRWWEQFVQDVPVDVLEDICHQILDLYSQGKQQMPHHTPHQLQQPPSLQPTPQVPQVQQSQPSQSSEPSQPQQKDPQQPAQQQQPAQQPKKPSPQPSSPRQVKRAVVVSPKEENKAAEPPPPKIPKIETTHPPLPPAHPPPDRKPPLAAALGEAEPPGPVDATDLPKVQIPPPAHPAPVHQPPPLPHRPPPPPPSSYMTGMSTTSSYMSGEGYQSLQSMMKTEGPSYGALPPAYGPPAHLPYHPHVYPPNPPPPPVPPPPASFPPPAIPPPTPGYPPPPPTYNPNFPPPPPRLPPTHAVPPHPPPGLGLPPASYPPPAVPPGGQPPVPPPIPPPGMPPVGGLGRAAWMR

[8] = molecular target: CDK9/Cyclin K (Homo sapiens, UniProt P50750); test: NanoBRET live-cell target engagement, NanoLuc-CDK9/Cyclin K in HEK-293; format: binding; details: CDK9/K, 10µM
CDK9/Cyclin K, sequence (P50750 whole entry): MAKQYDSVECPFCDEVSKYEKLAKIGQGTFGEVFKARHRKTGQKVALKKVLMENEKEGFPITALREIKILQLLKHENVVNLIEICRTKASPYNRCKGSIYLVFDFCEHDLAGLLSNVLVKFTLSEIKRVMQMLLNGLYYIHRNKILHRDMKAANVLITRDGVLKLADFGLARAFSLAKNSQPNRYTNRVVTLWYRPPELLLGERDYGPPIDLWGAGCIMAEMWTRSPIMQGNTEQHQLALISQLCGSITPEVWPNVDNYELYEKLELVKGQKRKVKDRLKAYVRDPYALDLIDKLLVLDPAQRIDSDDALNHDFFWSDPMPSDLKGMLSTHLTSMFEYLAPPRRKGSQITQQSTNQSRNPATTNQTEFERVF
CDK9/Cyclin K, sequence (O75909 whole entry partner): as the sequence (O75909 whole entry partner) above

[9] = molecular target: CDK7 (Homo sapiens, UniProt P50613); test: NanoBRET live-cell target engagement, NanoLuc-CDK7 in HEK-293; format: binding; details: CDK7, 10µM
CDK7, sequence (P50613 whole entry): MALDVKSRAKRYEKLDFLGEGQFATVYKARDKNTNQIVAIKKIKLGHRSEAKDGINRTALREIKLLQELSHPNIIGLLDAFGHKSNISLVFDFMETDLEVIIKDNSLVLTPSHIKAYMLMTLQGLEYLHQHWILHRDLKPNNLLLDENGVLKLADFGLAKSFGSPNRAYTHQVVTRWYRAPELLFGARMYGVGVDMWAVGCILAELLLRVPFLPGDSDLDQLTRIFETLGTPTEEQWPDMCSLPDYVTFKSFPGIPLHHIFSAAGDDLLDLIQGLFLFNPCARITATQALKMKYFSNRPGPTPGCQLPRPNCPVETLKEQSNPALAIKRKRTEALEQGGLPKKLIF

[10] = average of replicates, read-out: Inhibition at 10µM (%) Average
[11] = read-out: Inhibition at 10µM (%) Replicate 1
[12] = read-out: Inhibition at 10µM (%) Replicate 2

IC50 ([1]; n=3 average ± SEM, n=2 average to 2 significant figures, read-out: IC50 (nM) Average*): 410 nM
IC50 ([1]; read-out: IC50 (nM) Replicate 1): 370 nM
IC50 ([1]; read-out: IC50 (nM) Replicate 2): 450 nM
SMILES: CC[C@H](CO)Nc1nc(Nc2cccc(-c3ccccn3)c2)c2ncn(C(C)C)c2n1 [(R) - DRF053]

pIC50 ([1]; live HEK-293, 2 h, mean ± S.E.M. (n=3) or mean (n=2), read-out: IC50 for CDK/cyclin complexes, CDK2/E1): 6.39
SMILES: CC[C@H](CO)Nc1nc(Nc2cccc(-c3ccccn3)c2)c2ncn(C(C)C)c2n1 [(R)-DRF053]

inhibition at 10 µM ([2]; read-out: Inhibition at 10µM (%) Average, CDK10/L2, average of replicates): 77%
inhibition at 10 µM ([2]; read-out: Inhibition at 10µM (%) Replicate 1, CDK10/L2): 77.8%
inhibition at 10 µM ([2]; read-out: Inhibition at 10µM (%) Replicate 2, CDK10/L2): 76.2%
inhibition at 10 µM [3, 10]: 29.8%
inhibition at 10 µM [3, 11]: 34.8%
inhibition at 10 µM [3, 12]: 24.8%
inhibition at 10 µM ([4]; read-out: Inhibition at 10µM (%) Average, CDK19/C, average of replicates): 41.9%
inhibition at 10 µM ([4]; read-out: Inhibition at 10µM (%) Replicate 1, CDK19/C): 45.9%
inhibition at 10 µM ([4]; read-out: Inhibition at 10µM (%) Replicate 2, CDK19/C): 37.9%
inhibition at 10 µM [5, 11]: 30%
inhibition at 10 µM [5, 12]: 39.7%
inhibition at 10 µM [6, 10]: 47.1%
inhibition at 10 µM [6, 11]: 44.4%
inhibition at 10 µM [6, 12]: 49.7%
inhibition at 10 µM [7, 10]: 52.7%
inhibition at 10 µM [7, 11]: 52.9%
inhibition at 10 µM [7, 12]: 52.5%
inhibition at 10 µM [8, 10]: 98.6%
inhibition at 10 µM [8, 11]: 98%
inhibition at 10 µM [8, 12]: 99.2%
inhibition at 10 µM [9, 10]: 87.6%
inhibition at 10 µM [9, 11]: 89.4%
inhibition at 10 µM [9, 12]: 85.8%
SMILES: O=C(NC1CCNCC1)c1[nH]ncc1NC(=O)c1c(Cl)cccc1Cl [AT7519]
